The term IC50 denotes the concentration at which inhibition is half-maximal. Low values mean higher potency, high ones lower potency.

Common to all, as to assay type: cell-based
The test system of assay [1] is SNU-16 (FGFR2-amplification) cells. Description: cell proliferation assay (CellTiterGlo), SNU-16 cells. To be noted: Homo sapiens, 72 hours. Summed up: (§1)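 Each line was seeded and treated with varying compound concentrations or vehicle. Proliferation was read as CellTiterGlo ATP luminescence, and IC50 values were calculated from growth relative to vehicle-treated wells.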
In general terms: ATP-based viability assays read luminescence as a measure of living cells.

Assay [2] concerns UM-UC-14 (FGFR3-S249C) cells. Description: cell proliferation assay (CellTiterGlo), UM-UC-14 cells. The note with it: UMUC14, 72 h. The method in brief:
as §1

In assay [3] the test system is DMS-114 (FGFR1 overexpression) cells. Description: cell proliferation assay (CellTiterGlo), DMS-114 cells. The note with it: Homo sapiens, DMS-114, 72 h. The method in brief:
as §1

Assay [4] deals with RT-112 (FGFR3-Tacc3 fusion) cells. Description: cell proliferation assay (CellTiterGlo), RT-112 cells. To be noted: Homo sapiens, RT-112, RT112 cells, 72 hours. The method in brief:
as §1

Where only a bound is given, the exact number is not on record here.

With `Cc1nc2ccc(Oc3ccc4ncc(-c5cnn(CCC6CCS(=O)(=O)C6)c5)nc4c3Br)cc2[nH]1` (stereo not drawn) [Compound 278], the IC50 in assay [1] was < 20 nM; in assay [2], < 20 nM; in assay [3], ≥ 400 nM; in assay [4], < 20 nM.
`Cc1nc2ccc(Oc3ccc4ncc(-c5cnn(CC6CCS(=O)(=O)CC6)c5)nc4c3Br)cc2[nH]1` [Compound 279]: the IC50 in assay [1] is < 20 nM; in assay [2], < 20 nM; in assay [3], ≥ 400 nM; in assay [4] it was < 20 nM.
Consider `Cc1nc2ccc(Oc3ccc4ncc(-c5cnn(CC(C)(C)O)c5)nc4c3Cl)cc2[nH]1` [Compound 280], for which the IC50 in assay [1] was 20 to 100 nM; in assay [2], 20 to 100 nM; in assay [3], ≥ 400 nM; in assay [4] it was 20 to 100 nM.
As for `COC1CC(Cn2cc(-c3cnc4ccc(Oc5ccc6nc(C)[nH]c6c5)c(Cl)c4n3)cn2)C1` (stereo not drawn) [Compound 281], the concentration for half-maximal inhibition (IC50) was 20 to 100 nM in assay [1], 20 to 100 nM in assay [2], ≥ 400 nM in assay [3] and 20 to 100 nM in assay [4].
As to `Cc1nc2ccc(Oc3ccc4ncc(-c5cnn(C(C)(C)CC(N)=O)c5)nc4c3Cl)cc2[nH]1` [Compound 282], the IC50 in assay [1] is 20 to 100 nM; in assay [2], 100 to 400 nM; in assay [3], ≥ 400 nM; in assay [4], 20 to 100 nM.
Regarding `Cc1nc2ccc(Oc3ccc4ncc(-c5cnn(CC(=O)N6CC[C@@H](F)C6)c5)nc4c3Cl)cc2[nH]1` [Compound 283], the IC50 in assay [1] was 20 to 100 nM; in assay [2], 20 to 100 nM; in assay [3], ≥ 400 nM; in assay [4] it was 20 to 100 nM.
Regarding `Cc1nc2ccc(Oc3ccc4ncc(-c5cnn(CC(=O)N6CC[C@H](F)C6)c5)nc4c3Cl)cc2[nH]1` [Compound 284], the IC50 in assay [1] was 20 to 100 nM; in assay [2], 20 to 100 nM; in assay [3] it was ≥ 400 nM; in assay [4], 20 to 100 nM.
`Cc1nc2ccc(Oc3ccc4ncc(-c5cnn(CC(=O)N6CCOCC6)c5)nc4c3Cl)cc2[nH]1` [Compound 285]: the IC50 in assay [1] is 20 to 100 nM; in assay [2], 20 to 100 nM; in assay [3], ≥ 400 nM; in assay [4], 20 to 100 nM.
Turning to `Cc1nc2ccc(Oc3ccc4ncc(-c5cnn(CC6CCC(F)(F)C6)c5)nc4c3Cl)cc2[nH]1` (stereo not drawn) [Compound 286], the IC50 is 100 to 400 nM in assay [1], 20 to 100 nM in assay [2], ≥ 400 nM in assay [3] and 20 to 100 nM in assay [4].
Take `Cc1nc2ccc(Oc3ccc4ncc(-c5cnn(CC(=O)N6CCC(F)(F)C6)c5)nc4c3Cl)cc2[nH]1` [Compound 287]: the IC50 is 20 to 100 nM in assay [1], 20 to 100 nM in assay [2], ≥ 400 nM in assay [3] and 20 to 100 nM in assay [4].
Consider `Cc1nc2ccc(Oc3ccc4ncc(-c5cnn([C@H]6CCNC[C@@H]6F)c5)nc4c3C)cc2[nH]1` [Compound 288], for which the IC50 in assay [1] was 20 to 100 nM; in assay [2], 20 to 100 nM; in assay [3], ≥ 400 nM; in assay [4], 20 to 100 nM.
Turning to `Cc1nc2ccc(Oc3ccc4ncc(-c5cnn(C6CCNCC6)c5)nc4c3C3CC3)cc2[nH]1` [Compound 289], the 50% inhibitory concentration (IC50) was in the range of 20 to 100 nM in assay [1], 20 to 100 nM in assay [2], 100 to 400 nM in assay [3] and 20 to 100 nM in assay [4].
As for `Cc1nc2ccc(Oc3ccc4ncc(-c5cnn(CC(=O)N6CCC(F)C6)c5)nc4c3Cl)cc2[nH]1` (stereo not drawn) [Compound 290], the IC50 in assay [1] was 20 to 100 nM; in assay [2], 20 to 100 nM; in assay [3], ≥ 400 nM; in assay [4], 20 to 100 nM.
Take `Cc1nc2ccc(Oc3ccc4ncc(-c5cnn(CC6CC(N7CCC7)C6)c5)nc4c3Cl)cc2[nH]1` (stereo not drawn) [Compound 291]: the IC50 in assay [1] is 20 to 100 nM; in assay [2] it was 20 to 100 nM; in assay [3], ≥ 400 nM; in assay [4] it was 20 to 100 nM.
Consider `Cc1nc2ccc(Oc3ccc4ncc(-c5cnn(CC6CCNCC6)c5)nc4c3C)cc2[nH]1` [Compound 292], for which the IC50 in assay [1] was 100 to 400 nM; in assay [2] it was 20 to 100 nM; in assay [3], ≥ 400 nM; in assay [4], 100 to 400 nM.
Take `Cc1nc2ccc(Oc3ccc4ncc(-c5cnn(C6CCNCC6)c5)nc4c3C)cc2[nH]1` [Compound 293]: the concentration for half-maximal inhibition (IC50) fell in the range of 20 to 100 nM in assay [1], 20 to 100 nM in assay [2], 100 to 400 nM in assay [3] and 20 to 100 nM in assay [4].
Regarding `Cc1nc2ccc(Oc3ccc4ncc(-c5cnn(CCC6CCN(C7COC7)CC6)c5)nc4c3Cl)cc2[nH]1` [Compound 294], the IC50 is 20 to 100 nM in assay [1], < 20 nM in assay [2], 100 to 400 nM in assay [3] and 20 to 100 nM in assay [4].
For `Cc1nc2ccc(Oc3ccc4ncc(-c5cnn(C67CCN(CC6)C7)c5)nc4c3Cl)cc2[nH]1` [Compound 295], the half-maximal inhibitory concentration (IC50) in assay [1], in assay [2], in assay [3] and in assay [4] was ≥ 400 nM throughout.
`Cc1nc2ccc(Oc3ccc4ncc(-c5cnn(CCC6CCN(CC(F)(F)F)CC6)c5)nc4c3Cl)cc2[nH]1` [Compound 296]: the IC50 in assay [1] was 20 to 100 nM; in assay [2] it was 20 to 100 nM; in assay [3], ≥ 400 nM; in assay [4], 20 to 100 nM.
For the compound `Cc1nc2ccc(Oc3ccc4ncc(-c5cnn(CC6CC(N(C)C)C6)c5)nc4c3Cl)cc2[nH]1` (stereo not drawn) [Compound 297], the IC50 in assay [1] is 20 to 100 nM; in assay [2] it was 20 to 100 nM; in assay [3], ≥ 400 nM; in assay [4], 20 to 100 nM.
Take `C=C1COC(Cn2cc(-c3cnc4ccc(Oc5ccc6nc(C)[nH]c6c5)c(Cl)c4n3)cn2)OC1` [Compound 298]: the IC50 in assay [1] was 100 to 400 nM; in assay [2] it was 20 to 100 nM; in assay [3], ≥ 400 nM; in assay [4], 20 to 100 nM.
In the case of `Cc1nc2ccc(Oc3ccc4ncc(-c5cnn(CC6OCC7(COC7)CO6)c5)nc4c3Cl)cc2[nH]1` [Compound 299], the IC50 was 20 to 100 nM in assay [1], 20 to 100 nM in assay [2], ≥ 400 nM in assay [3] and 20 to 100 nM in assay [4].
Consider `CCC(=O)N1CCC(CCn2cc(-c3cnc4ccc(Oc5ccc6nc(C)[nH]c6c5)c(Cl)c4n3)cn2)CC1` [Compound 300], for which the IC50 was 20 to 100 nM in assay [1], < 20 nM in assay [2], ≥ 400 nM in assay [3] and 20 to 100 nM in assay [4].
For `Cc1nc2ccc(Oc3ccc4ncc(-c5cnn(C6CCN(CCO)CC6)c5)nc4c3Cl)cc2[nH]1` [Compound 301], the IC50 in assay [1] was < 20 nM; in assay [2] it was 20 to 100 nM; in assay [3], ≥ 400 nM; in assay [4], < 20 nM.
As for `Cc1nc2ccc(Oc3ccc4ncc(-c5cnn(CC6CC(F)(F)C6)c5)nc4c3C)cc2[nH]1` [Compound 302], the concentration for half-maximal inhibition (IC50) was 100 to 400 nM in assay [1], 100 to 400 nM in assay [2], ≥ 400 nM in assay [3] and 100 to 400 nM in assay [4].
On to `Cc1nc2ccc(Oc3ccc4ncc(-c5cnn(C6CCN(CC(F)(F)F)CC6)c5)nc4c3Cl)cc2[nH]1` [Compound 303], for which the IC50 in assay [1] was 20 to 100 nM; in assay [2], 20 to 100 nM; in assay [3] it was ≥ 400 nM; in assay [4], 20 to 100 nM.
Consider `Cc1nc2ccc(Oc3ccc4ncc(-c5cnn(CCC6CCNCC6)c5)nc4c3Cl)cc2[nH]1` [Compound 304], for which the IC50 in assay [1] is 100 to 400 nM; in assay [2] it was 20 to 100 nM; in assay [3], ≥ 400 nM; in assay [4], 20 to 100 nM.

These data come from US20240368181A1, “QUINOXALINE DERIVATIVES AND USES THEREOF” (Black Diamond Therapeutics, Inc., priority 2021, published 2024).
